# Source: US20260258473A1, “FLUORESCENT PROBE FOR DETECTION OF ENPP ACTIVITY” (THE UNIVERSITY OF TOKYO, priority 2019, published 2026)
# Target: ENPP2 (Homo sapiens, UniProt Q13822)
# Assay: Measurement of plasma sample using a plate reader (ENPP probe fluorescence with and without serum)
# Format: biochemical
# Details: compound at 10 μmol/L, ENPP2 at 25 μg/mL, human serum diluted by 10 times vs no serum, multi-well plate, Tris-HCl pH 8.3
# Experimental: First, compounds (4) was diluted to 10 μmol/L with an assay buffer. The assay buffer has the composition of Tris-HCl buffer solution (pH 8.3), magnesium chloride at 1.0 mmol/L and 0.5% CHAPS. Subsequently, ENPP2 at 25 μg/mL and human serum diluted by 10 times were added, and the mixture was dispensed into a multi-well plate. Subsequently, the fluorescence intensity was measured with a plate reader. […] On the other hand, as described above, the measurement method using a microdevice enabled the activity of ENPP to be adequately measured even in the presence of serum.
smiles,measurement,value
COc1cc(OC)c(S(=O)(=O)O)cc1-c1c2ccc(=O)cc-2oc2cc(OCOP(=O)(O)OCC3OC(n4cc(C)c(=O)[nH]c4=O)CC3O)ccc12 (stereo not shown) [Compound (4)],measured intensity of the activity of ENPP (fluorescence intensity),lower when serum was present than when serum was not present
